Data: PMC6150275, “Synthesis and Molecular Modeling Studies of N′-Hydroxyindazolecarboximidamides as Novel Indoleamine 2,3-Dioxygenase 1 (IDO1) Inhibitors” (Molecules : A Journal of Synthetic Chemistry and Natural …, 2017)
“Also recorded” adds a separate entry of the source. Where two headings read alike, the source gives them in different places.

Columns and labels:
[1] = target: T1, human IDO1 expressing HEK293 recombinant cells (Homo sapiens, UniProt P14902); assay: Cell based assay for anti-IDO1 activity by determination of tryptophan and kynurenine in culture supernatant using LC-MS; settings: for IC50: human IDO1-expressing HEK293 cells, doxycycline induced, 24 h, dose-response curve
T1 construct: expressed in transfected cells; host or cells: Flp-In-Rex- HEK293 cells (Invitrogen), pcDNA5/FRT/TO vector, doxycycline-induced
T1 sequence (P14902 whole entry): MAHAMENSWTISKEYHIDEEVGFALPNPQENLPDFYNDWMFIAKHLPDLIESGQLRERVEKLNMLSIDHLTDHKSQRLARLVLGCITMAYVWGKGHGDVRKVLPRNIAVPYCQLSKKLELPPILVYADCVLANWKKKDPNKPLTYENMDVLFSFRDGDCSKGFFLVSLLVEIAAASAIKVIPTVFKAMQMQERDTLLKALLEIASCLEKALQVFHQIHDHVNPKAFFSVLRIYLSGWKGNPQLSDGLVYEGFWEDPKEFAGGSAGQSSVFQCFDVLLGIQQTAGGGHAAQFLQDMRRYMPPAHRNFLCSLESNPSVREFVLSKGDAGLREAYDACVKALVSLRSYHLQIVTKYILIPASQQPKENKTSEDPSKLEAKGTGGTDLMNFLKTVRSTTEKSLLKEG
Description: All synthesized compounds were evaluated for inhibitory activities against IDO1. For this purpose, we generated human IDO1 gene-expressing HEK293 recombinant cells and used those cells to analyze the inhibitory capacity of the compounds. Briefly, we induced the expression vector system of IDO1 by treating […] cells with doxycycline, and measured both the depletion of L-tryptophan in culture media and the generation of kynurenine in IDO1-overexpressing HEK293 cells by using the LC-MS system upon culture supernatants.
cDNA of human IDO1 gene (provided from Korean UniGene, Daejeon, Korea) was inserted into pcDNA5/FRT/TO expression vector (Invitrogen, Waltham, MA, USA) and transfected into Flp-In-Rex- HEK293 cells (Invitrogen). After transfection, homogenous IDO1 expressing HEK293 cells were selected using hygromycin and confirmed for their IDO1 expression using Western blot.
To analyze anti-IDO1 activity of compounds, human IDO1 expressing HEK293 recombinant cells were seeded in 100 μL of complete MEM media containing 10% FBS in a 96-well plate. After incubation for 48 hours, various concentrations of compounds with 0.2 ng/mL doxycyclin (Sigma Aldrich, St. Louis, MO, USA) was treated and incubated for 24 h. Culture supernatants were collected and prepared for analysis of tryptophan and kynurenine using LC-MS. For preparation of samples for LC-MS analysis, 30 μL of culture supernatant was mixed with 2 μM caffeine containing 270 μL methanol. After centrifugation at 12,000 rpm for 10 min, 100 μL of supernatant was transferred into new 1.5 mL tubes. Distilled water (900 μL) was added into 100 μL of supernatant and vortexed. The concentrations of tryptophan and kynurenine were determined by an LC-MS/MS system consisting of an Agilent 1200 series HPLC system (Agilent Technologies, Santa Clara, CA, USA) with an API 4000 QTRAP hybrid triple quadrupole/linear ion trap mass spectrometer (AB Sciex, Foster City, CA, USA) equipped with a turbo electrospray interface. Chromatographic separation of tryptophan and kynurenine was achieved on a Unison UK-C18 column (100 mm × 2 mm i.d., 3 μm; Imtakt, Kyoto, Japan) with a Security Guard C18 guard column (4 mm × 20 mm i.d.; Phenomenex, Torrance, CA, USA) maintained at 25 °C. Isocratic mode was used to achieve separation of the analytes using mobile phase (acetonitrile with 0.1 formic acid and water with 0.1% formic acid (20:80 v/v) at a flow rate of 300 μL/min for 3 min. The multiple reaction monitoring (MRM) transition was m/z 204.94 → 188.1 for tryptophan and m/z 208.97 → 192.00 for kynurenine under positive-ionization. Optimized values for de-clustering potential, collision energy, entrance potential, and collision-exit potential were 26 V, 15 eV, 9.5 V and 8 V and 21 V, 13 eV, 10 V and 8 V for tryptophan and kynurenine, respectively. The optimized instrument conditions were as follows: ion spray voltage, 5500 V; source temperature, 450 °C; curtain gas, 25 psi; nebulizing gas (GS1), 30 psi; heating gas (GS2), 30 psi. Data analysis was performed using Analyst Software version 1.4.2. (AB Sciex, Foster City, CA, USA).

hIDO1 = target: T2, hIDO1 (Homo sapiens, UniProt P14902); assay: hIDO1 enzymatic assay (BPS Bioscience IDO1 inhibitor screening assay kit); format: biochemical; settings: for inhibition at 20 µM: 20 µM compound, enzymatic assay
T2 construct: purchased BPS Bioscience (San Diego, CA, USA)
T2 sequence (P14902 whole entry): as above
Description: To analyze the hIDO1 inhibitory activities of compounds, we used IDO1 inhibitor screening assay kit and followed the protocol provided from BPS Bioscience (San Diego, CA, USA). Briefly, 5 μL of IDO solution was aliquoted into a 384-well plate and treated with 5 μL of compound in buffer at room temperature for 3 h. The data was measured at λ = 320 to 325 nm.

[2] = kynurenine by LC-MS, read-out: HEK293 IC50 Kynurenine Production
[3] = tryptophan by LC-MS, read-out: HEK293 IC50 Tryptophan Depletion

Row | IDO1 inhibition in cell-based assay (in words) [1] | IC50 [1, 2] [µM] | IC50 [1, 3] [µM] | inhibition at 20 µM (hIDO1) [%] | hIDO1 inhibition in enzymatic assay (in words) (hIDO1) | Compound
1 |  | > 10 | > 10 |  |  | O/N=C(\Nc1ccc(F)cc1)c1cccc2cn[nH]c12 [Compound 8d, (Z)-N-(4-Fluorophenyl)-N′-hydroxy-1H-indazole-7-carboximidamide]
2 |  | > 10 | > 10 |  |  | COc1ccc(N/C(=N\O)c2cccc3cn[nH]c23)cc1Cl [Compound 8i, (Z)-N-(3-Chloro-4-methoxyphenyl)-N′-hydroxy-1H-indazole-7-carboximidamide]
3 |  | > 10 | > 10 |  |  | O/N=C(\Nc1ccc(Cl)cc1)c1cccc2cn[nH]c12 [Compound 8k, (Z)-N-(4-Chlorophenyl)-N′-hydroxy-1H-indazole-7-carboximidamide]
4 |  | > 10 | > 10 |  |  | COc1ccc(N/C(=N\O)c2cccc3cn[nH]c23)cc1 [Compound 8l, (Z)-N′-Hydroxy-N-(4-methoxyphenyl)-1H-indazole-7-carboximidamide]
5 |  | > 10 | > 10 |  |  | Cc1ccc(N/C(=N\O)c2cccc3cn[nH]c23)cc1 [Compound 8m, (Z)-N′-Hydroxy-N-(p-tolyl)-1H-indazole-7-carboximidamide]

The remaining lines, values behind:

Row | Compound | IDO1 inhibition in cell-based assay (in words) [1] | IC50 [1, 2] [µM] | IC50 [1, 3] [µM] | inhibition at 20 µM (hIDO1) [%] | hIDO1 inhibition in enzymatic assay (in words) (hIDO1)
6 | O/N=C(\Nc1ccc(F)c(Br)c1)c1cccc2cn[nH]c12 [Compound 8a, (Z)-N-(3-Bromo-4-fluorophenyl)-N′-hydroxy-1H-indazole-7-carboximidamide] | most active in this series; also recorded: moderate IDO1 inhibitory activity | 2.13 | 1.76 | 81 | 
7 | O/N=C(\Nc1ccc(F)c(Cl)c1)c1cccc2cn[nH]c12 [Compound 8b, (Z)-N-(3-Chloro-4-fluorophenyl)-N′-hydroxy-1H-indazole-7-carboximidamide] |  | 3.14 | 3.26 | 79 | 
8 | O/N=C(\Nc1cccc(Cl)c1)c1cccc2cn[nH]c12 [Compound 8c, (Z)-N-(3-Chlorophenyl)-N′-hydroxy-1H-indazole-7-carboximidamide] |  | 4.89 | 4.95 | 77 | 
9 | O/N=C(\Nc1cc(F)ccc1F)c1cccc2cn[nH]c12 [Compound 8e, (Z)-N-(2,5-Difluorophenyl)-N′-hydroxy-1H-indazole-7-carboximidamide] |  | > 10 | > 10 |  | 
10 | CC(=O)c1cccc(N/C(=N\O)c2cccc3cn[nH]c23)c1 [Compound 8f, (Z)-N-(3-Acetylphenyl)-N′-hydroxy-1H-indazole-7-carboximidamide] |  | > 10 | > 10 |  | 
11 | Cc1cccc(N/C(=N\O)c2cccc3cn[nH]c23)c1 [Compound 8g, (Z)-N′-Hydroxy-N-(m-tolyl)-1H-indazole-7-carboximidamide] |  | > 10 | > 10 |  | 
12 | Cc1cc(N/C(=N\O)c2cccc3cn[nH]c23)ccc1Cl [Compound 8h, (Z)-N-(4-Chloro-3-methylphenyl)-N′-hydroxy-1H-indazole-7-carboximidamide] |  | > 10 | > 10 |  | 
13 | O/N=C(\Nc1ccccc1)c1cccc2cn[nH]c12 [Compound 8j, (Z)-N′-Hydroxy-N-phenyl-1H-indazole-7-carboximidamide] |  | > 10 | > 10 |  | 
14 | Cn1ncc2cccc(/C(=N/O)Nc3ccc(F)c(Br)c3)c21 [Compound 12, (Z)-N-(3-Bromo-4-fluorophenyl)-N′-hydroxy-1-methyl-1H-indazole-7-carboximidamide] | did not inhibit IDO1 | > 10 | > 10 | 15 | did not inhibit IDO1
15 | O/N=C(\Nc1ccc(F)c(Br)c1)c1ccccc1O [Compound 16, (Z)-N-(3-Bromo-4-fluorophenyl)-N′,2-dihydroxybenzimidamide] | moderate inhibitory activity | 7.91 | 7.76 |  | 
